Assay results reported in ChEMBL document CHEMBL4765381, “Neuropeptide FF and Its Receptors: Therapeutic Applications and Ligand Development” (J Med Chem, 2020).
Numbered stars: 1 amine (or outer) side, 2 acyl side, 3 side chain; on linkers, the order of the positions; unused ones are H or OH. Square brackets hold non-standard residues; d marks the D form. Peptide text beside a SMILES is read from it. X1 = O=C1[C@@H](N[*:1])Cc2ccccc2CN1CCC(=O)[*:2]; Dmt = Cc1cc(O)cc(C)c1C[C@H](N)C(=O)O

Key:
[1] = molecular target: T1, Neuropeptide FF receptor 1 (Homo sapiens, UniProt Q9GZQ6); test: Binding affinity to human NPFFR1 by radioligand binding assay
[2] = molecular target: Neuropeptide FF receptor 2 (Rattus norvegicus, UniProt Q9EQD2); test: Binding affinity to rat NPFFR2 by radioligand binding assay
[3] = molecular target: T2, Neuropeptide FF receptor 2 (Homo sapiens, UniProt Q9Y5X5); test: Binding affinity to human NPFFR2 by radioligand binding assay
[4] = molecular target: Neuropeptide FF receptor 1 (Rattus norvegicus, UniProt Q9EP86); test: Binding affinity to rat NPFFR1 by radioligand binding assay
[5] = molecular target: T2, Neuropeptide FF receptor 2; test: Agonist activity at NPFFR2 (unknown origin) expressed in HEK-293A cells assessed as inhibition of forskolin-induced cAMP accumulation preincubated for 30 mins followed by [3H] cAMP addition measured after 2 hrs by scintillation counting method; type: functional, cell-based, HEK293-A
[6] = molecular target: T3, Kappa-type opioid receptor (Homo sapiens, UniProt P41145); test: Agonist activity at kappa opioid receptor (unknown origin) expressed in HEK-293A cells assessed as inhibition of forskolin-induced cAMP accumulation preincubated for 30 mins followed by [3H] cAMP addition measured after 2 hrs by scintillation counting method; type: functional, cell-based, HEK293-A
[7] = molecular target: T1, Neuropeptide FF receptor 1; test: Agonist activity at NPFFR1 (unknown origin) expressed in HEK-293A cells assessed as inhibition of forskolin-induced cAMP accumulation preincubated for 30 mins followed by [3H] cAMP addition measured after 2 hrs by scintillation counting method; type: functional, cell-based, HEK293-A
[8] = molecular target: T1, Neuropeptide FF receptor 1; test: Agonist activity at human NPFFR1 expressed in CHO cells by [35S]-GTP S binding assay relative to control; type: cell-based; settings: filed as agonist
[9] = molecular target: Nociceptin receptor (Homo sapiens, UniProt P41146); test: Agonist activity at human nociceptin receptor expressed in HEK293 cells assessed as inhibition of forskolin-induced cAMP accumulation incubated for 15 mins followed by forskolin addition in presence of IBMX by Glo-sensor cAMP assay; type: functional, cell-based
[10] = molecular target: T3, Kappa-type opioid receptor; test: Agonist activity at human kappa opioid receptor expressed in HEK293 cells assessed as inhibition of forskolin-induced cAMP accumulation incubated for 15 mins followed by forskolin addition in presence of IBMX by Glo-sensor cAMP assay; type: functional, cell-based
[11] = molecular target: T3, Kappa-type opioid receptor; test: Agonist activity at human kappa opioid receptor expressed in HEK293 cells assessed as inhibition of forskolin-induced cAMP accumulation incubated for 15 mins followed by forskolin addition in presence of IBMX by Glo-sensor cAMP assay relative to control; type: functional, cell-based; settings: filed as agonist
[12] = molecular target: Delta-type opioid receptor (Homo sapiens) (UniProt P41143); test: Agonist activity at human delta-opioid receptor expressed in HEK293 cells assessed as inhibition of forskolin-induced cAMP accumulation preincubated for 15 mins followed by forskolin addition in presence of IBMX by Glo-sensor cAMP assay relative to control; type: functional, cell-based; settings: filed as agonist
[13] = molecular target: T2, Neuropeptide FF receptor 2; test: Agonist activity at human NPFFR2 expressed in CHO cells by [35S]-GTP S binding assay relative to control; type: cell-based; settings: filed as agonist
[14] = molecular target: Mu-type opioid receptor (Homo sapiens) (UniProt P35372); test: Agonist activity at human mu-opioid receptor expressed in HEK293 cells assessed as inhibition of forskolin-induced cAMP accumulation preincubated for 15 mins followed by forskolin addition in presence of IBMX by Glo-sensor cAMP assay relative to control; type: functional, cell-based; settings: filed as agonist
[15] = molecular target: T2, Neuropeptide FF receptor 2; test: Displacement of [3H]-FFRF-NH2 from human FLAG-tagged NPFFR2 expressed in CHO cell membrane incubated for 30 mins by Topcount scintillation counting method
[16] = molecular target: T1, Neuropeptide FF receptor 1; test: Displacement of [3H]-FFRF-NH2 from human FLAG-tagged NPFFR1 expressed in CHO cell membrane incubated for 30 mins by Topcount scintillation counting method
[17] = molecular target: T1, Neuropeptide FF receptor 1; test: Displacement of 125I-NPFF from human NPFFR1 incubated for 2 hrs by TopCount scintillation counting method
[18] = molecular target: T1, Neuropeptide FF receptor 1; test: Agonist activity at NPFFR1 (unknown origin) expressed in mouse NIH3T3 cells by receptor selection and amplification technology assay relative to control; type: cell-based
[19] = molecular target: T2, Neuropeptide FF receptor 2; test: Agonist activity at NPFFR2 (unknown origin) expressed in mouse NIH3T3 cells by receptor selection and amplification technology assay; type: cell-based
[20] = molecular target: T1, Neuropeptide FF receptor 1; test: Agonist activity at NPFFR1 (unknown origin) expressed in HEK293T cells harboring EP2 incubated for 15 mins by cAMP assay relative to control; type: functional, cell-based
[21] = molecular target: T2, Neuropeptide FF receptor 2; test: Displacement of 125I-NPFF from human NPFFR2 incubated for 2 hrs by TopCount scintillation counting method
[22] = molecular target: T1, Neuropeptide FF receptor 1; test: Antagonist activity at human NPFFR1 expressed in CHO cells assessed as reversal of NPVF-induced inhibition of forskolin-stimulated cAMP accumulation incubated for 10 mins by liquid scintillation counting method; type: functional, cell-based
[23] = molecular target: T2, Neuropeptide FF receptor 2; test: Displacement of [125I]Tyr-NPFF from human NPFFR2 expressed in green monkey Cos-1 cells; type: cell-based
[24] = molecular target: T1, Neuropeptide FF receptor 1; test: Displacement of [125I]YVP from human NPFFR1 expressed in CHO cells; type: cell-based
[25] = molecular target: T2, Neuropeptide FF receptor 2; test: Agonist activity at human NPFFR2 expressed in CHO cells assessed as inhibition of forskolin-induced cAMP accumulation incubated for 30 mins by LANCE cAMP assay; type: functional, cell-based
[26] = molecular target: T2, Neuropeptide FF receptor 2; test: Agonist activity at NPFFR2 (unknown origin) expressed in HEK293 cells assessed as inhibition of forskolin-induced cAMP accumulation incubated for 30 mins relative to control; type: functional, cell-based; settings: filed as agonist
[27] = molecular target: T4, Prolactin-releasing peptide receptor (Homo sapiens, UniProt P49683); test: Displacement of [3H]-PrRP-20 from human PrRP receptor expressed in CHO cell membrane by TopCount scintillation counter method; type: cell membranes
T4 sequence (P49683 whole entry): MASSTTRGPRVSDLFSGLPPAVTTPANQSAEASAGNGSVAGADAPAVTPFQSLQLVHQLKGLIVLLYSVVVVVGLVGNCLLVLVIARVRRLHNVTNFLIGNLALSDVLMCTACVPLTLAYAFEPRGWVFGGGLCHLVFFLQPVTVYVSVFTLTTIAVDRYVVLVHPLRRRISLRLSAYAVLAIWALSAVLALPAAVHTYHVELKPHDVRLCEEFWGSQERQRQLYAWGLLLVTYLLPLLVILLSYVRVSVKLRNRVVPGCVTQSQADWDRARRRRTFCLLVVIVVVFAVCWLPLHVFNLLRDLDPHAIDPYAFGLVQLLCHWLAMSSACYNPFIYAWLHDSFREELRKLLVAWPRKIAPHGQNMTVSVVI

[28] = molecular target: T5, Pyroglutamylated RF-amide peptide receptor (Homo sapiens, UniProt Q96P65); test: Displacement of [125I]-43RFa from human QRFP receptor expressed in CHO cell membrane by TopCount scintillation counter method; type: cell membranes
T5 sequence (Q96P65 whole entry): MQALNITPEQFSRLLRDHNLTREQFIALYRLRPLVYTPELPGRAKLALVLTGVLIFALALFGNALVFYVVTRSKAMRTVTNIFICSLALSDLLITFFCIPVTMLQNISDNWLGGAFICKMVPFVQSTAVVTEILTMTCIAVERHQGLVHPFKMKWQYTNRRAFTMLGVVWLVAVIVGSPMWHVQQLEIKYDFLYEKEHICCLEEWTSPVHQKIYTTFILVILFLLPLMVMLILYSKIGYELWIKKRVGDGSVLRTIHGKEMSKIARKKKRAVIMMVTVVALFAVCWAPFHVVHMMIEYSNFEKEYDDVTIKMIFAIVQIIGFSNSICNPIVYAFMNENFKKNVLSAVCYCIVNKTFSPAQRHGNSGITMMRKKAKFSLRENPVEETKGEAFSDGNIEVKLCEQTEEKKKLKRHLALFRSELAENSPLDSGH

[29] = molecular target: T2, Neuropeptide FF receptor 2; test: Displacement of [3H]-FFRF-NH2 from human NPFFR2 expressed in CHO cell membrane by Topcount scintillation counting method; type: cell membranes
[30] = molecular target: T1, Neuropeptide FF receptor 1; test: Displacement of [3H]-FFRF-NH2 from human NPFFR1 expressed in CHO cell membrane by Topcount scintillation counting method; type: cell membranes
[31] = molecular target: KiSS-1 receptor (Homo sapiens, UniProt Q969F8); test: Displacement of [125I]-Kp-10 from human KISS1R expressed in CHO cell membrane by TopCount scintillation counter method; type: cell membranes
[32] = molecular target: T2, Neuropeptide FF receptor 2; test: Agonist activity at NPFFR2 (unknown origin) expressed in HEK293T cells harboring EP2 incubated for 15 mins by cAMP assay; type: functional, cell-based
[33] = molecular target: T2, Neuropeptide FF receptor 2; test: Agonist activity at NPFFR2 (unknown origin) expressed in mouse NIH3T3 cells by receptor selection and amplification technology assay relative to control; type: cell-based; settings: filed as agonist
[34] = molecular target: T2, Neuropeptide FF receptor 2; test: Agonist activity at NPFFR2 (unknown origin) expressed in HEK293T cells harboring EP2 incubated for 15 mins by cAMP assay relative to control; type: functional, cell-based; settings: filed as agonist
[35] = molecular target: T1, Neuropeptide FF receptor 1; test: Agonist activity at NPFFR1 (unknown origin) expressed in HEK293T cells harboring EP2 incubated for 15 mins by cAMP assay; type: functional, cell-based
[36] = molecular target: T1, Neuropeptide FF receptor 1; test: Agonist activity at NPFFR1 (unknown origin) expressed in mouse NIH3T3 cells by receptor selection and amplification technology assay; type: cell-based

T3 sequence (P41145 whole entry): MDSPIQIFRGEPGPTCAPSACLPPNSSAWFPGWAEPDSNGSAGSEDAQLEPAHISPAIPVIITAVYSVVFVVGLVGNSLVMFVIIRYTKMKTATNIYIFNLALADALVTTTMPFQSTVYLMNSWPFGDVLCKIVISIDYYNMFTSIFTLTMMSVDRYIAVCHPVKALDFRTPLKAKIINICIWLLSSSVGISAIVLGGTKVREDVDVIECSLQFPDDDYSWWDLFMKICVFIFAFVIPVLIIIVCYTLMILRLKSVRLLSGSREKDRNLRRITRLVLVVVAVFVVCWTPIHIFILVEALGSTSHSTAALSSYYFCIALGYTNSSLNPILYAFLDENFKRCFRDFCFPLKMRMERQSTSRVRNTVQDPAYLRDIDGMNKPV
T1 sequence (Q9GZQ6 whole entry): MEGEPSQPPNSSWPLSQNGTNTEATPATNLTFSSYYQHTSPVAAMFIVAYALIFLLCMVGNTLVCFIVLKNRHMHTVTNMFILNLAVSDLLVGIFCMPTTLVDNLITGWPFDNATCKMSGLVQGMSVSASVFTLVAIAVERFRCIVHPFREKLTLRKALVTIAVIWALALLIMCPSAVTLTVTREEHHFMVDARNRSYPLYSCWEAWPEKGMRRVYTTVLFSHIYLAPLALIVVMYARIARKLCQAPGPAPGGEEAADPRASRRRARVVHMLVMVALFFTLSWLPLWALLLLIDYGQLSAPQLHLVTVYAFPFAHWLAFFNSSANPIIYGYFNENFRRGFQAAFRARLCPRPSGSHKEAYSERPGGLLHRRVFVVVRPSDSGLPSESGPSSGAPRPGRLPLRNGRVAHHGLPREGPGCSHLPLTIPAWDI
T2 sequence (Q9Y5X5 whole entry): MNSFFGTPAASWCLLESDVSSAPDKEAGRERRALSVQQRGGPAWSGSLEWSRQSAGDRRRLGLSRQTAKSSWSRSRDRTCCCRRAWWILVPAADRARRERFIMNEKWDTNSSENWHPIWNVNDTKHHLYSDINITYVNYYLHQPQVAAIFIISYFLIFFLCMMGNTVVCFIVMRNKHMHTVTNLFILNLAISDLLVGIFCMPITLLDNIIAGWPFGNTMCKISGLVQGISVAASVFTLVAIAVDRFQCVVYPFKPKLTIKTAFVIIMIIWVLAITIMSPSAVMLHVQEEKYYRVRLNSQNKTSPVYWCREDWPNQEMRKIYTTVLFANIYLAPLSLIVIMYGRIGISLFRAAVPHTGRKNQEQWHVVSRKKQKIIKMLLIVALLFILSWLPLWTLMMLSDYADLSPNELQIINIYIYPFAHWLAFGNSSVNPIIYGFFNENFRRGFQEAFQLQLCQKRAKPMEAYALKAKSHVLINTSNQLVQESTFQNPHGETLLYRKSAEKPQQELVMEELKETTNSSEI
Neuropeptide FF receptor 1 (Rattus norvegicus, UniProt Q9EP86), sequence (Q9EP86 whole entry): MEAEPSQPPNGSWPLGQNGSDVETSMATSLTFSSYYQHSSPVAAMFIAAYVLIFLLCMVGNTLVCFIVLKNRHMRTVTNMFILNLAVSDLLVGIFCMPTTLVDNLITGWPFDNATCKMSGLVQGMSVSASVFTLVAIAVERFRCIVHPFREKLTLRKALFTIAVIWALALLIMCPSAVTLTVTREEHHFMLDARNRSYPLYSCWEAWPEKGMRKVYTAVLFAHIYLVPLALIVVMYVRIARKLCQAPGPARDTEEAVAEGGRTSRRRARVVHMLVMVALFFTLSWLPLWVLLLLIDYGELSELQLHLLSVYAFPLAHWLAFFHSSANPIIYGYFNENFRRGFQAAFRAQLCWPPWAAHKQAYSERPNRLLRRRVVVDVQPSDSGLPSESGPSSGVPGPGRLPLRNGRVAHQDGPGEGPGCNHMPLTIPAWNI
Mu-type opioid receptor (Homo sapiens), sequence (P35372 whole entry): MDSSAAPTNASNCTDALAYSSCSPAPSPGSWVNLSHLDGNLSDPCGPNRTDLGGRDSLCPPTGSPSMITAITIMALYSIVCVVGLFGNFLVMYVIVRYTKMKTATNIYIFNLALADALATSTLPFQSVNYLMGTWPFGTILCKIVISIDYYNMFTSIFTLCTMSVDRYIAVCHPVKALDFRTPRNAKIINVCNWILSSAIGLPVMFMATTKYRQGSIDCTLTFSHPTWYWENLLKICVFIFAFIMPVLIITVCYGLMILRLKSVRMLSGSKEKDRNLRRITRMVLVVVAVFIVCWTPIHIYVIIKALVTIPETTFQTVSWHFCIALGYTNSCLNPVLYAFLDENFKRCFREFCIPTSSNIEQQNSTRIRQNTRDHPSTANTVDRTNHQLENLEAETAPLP
KiSS-1 receptor, sequence (Q969F8 whole entry): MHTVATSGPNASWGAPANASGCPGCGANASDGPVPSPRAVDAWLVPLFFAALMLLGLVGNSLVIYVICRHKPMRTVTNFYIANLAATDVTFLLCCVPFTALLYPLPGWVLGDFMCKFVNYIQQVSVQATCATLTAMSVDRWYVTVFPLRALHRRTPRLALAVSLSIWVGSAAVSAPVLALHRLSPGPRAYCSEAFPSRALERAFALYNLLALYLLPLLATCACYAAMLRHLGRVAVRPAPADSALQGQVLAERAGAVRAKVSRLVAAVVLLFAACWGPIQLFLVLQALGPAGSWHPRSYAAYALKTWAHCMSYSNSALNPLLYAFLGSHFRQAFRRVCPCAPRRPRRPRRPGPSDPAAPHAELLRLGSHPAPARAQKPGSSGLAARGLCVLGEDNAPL
Nociceptin receptor, sequence (P41146 whole entry): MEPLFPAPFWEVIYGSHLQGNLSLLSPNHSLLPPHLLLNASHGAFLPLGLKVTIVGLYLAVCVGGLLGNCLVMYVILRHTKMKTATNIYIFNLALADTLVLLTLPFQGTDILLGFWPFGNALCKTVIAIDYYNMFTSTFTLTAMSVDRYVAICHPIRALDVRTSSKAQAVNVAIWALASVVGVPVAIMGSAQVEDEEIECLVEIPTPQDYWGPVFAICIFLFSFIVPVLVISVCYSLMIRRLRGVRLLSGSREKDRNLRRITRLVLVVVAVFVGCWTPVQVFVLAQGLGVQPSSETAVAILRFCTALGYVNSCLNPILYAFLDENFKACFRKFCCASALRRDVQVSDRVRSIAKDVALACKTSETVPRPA
Neuropeptide FF receptor 2 (Rattus norvegicus, UniProt Q9EQD2), sequence (Q9EQD2 whole entry): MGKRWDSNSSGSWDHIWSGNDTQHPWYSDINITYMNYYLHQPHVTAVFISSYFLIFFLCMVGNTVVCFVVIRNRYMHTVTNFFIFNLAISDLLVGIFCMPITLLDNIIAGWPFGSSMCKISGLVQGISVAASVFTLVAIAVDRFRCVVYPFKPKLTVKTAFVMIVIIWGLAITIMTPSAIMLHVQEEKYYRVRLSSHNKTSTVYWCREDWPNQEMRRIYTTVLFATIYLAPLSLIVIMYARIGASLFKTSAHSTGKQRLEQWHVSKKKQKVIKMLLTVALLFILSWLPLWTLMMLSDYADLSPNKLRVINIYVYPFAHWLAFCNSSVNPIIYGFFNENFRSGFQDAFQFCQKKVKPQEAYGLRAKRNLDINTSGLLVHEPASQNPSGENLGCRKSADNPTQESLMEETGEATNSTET
Delta-type opioid receptor (Homo sapiens), sequence (P41143 whole entry): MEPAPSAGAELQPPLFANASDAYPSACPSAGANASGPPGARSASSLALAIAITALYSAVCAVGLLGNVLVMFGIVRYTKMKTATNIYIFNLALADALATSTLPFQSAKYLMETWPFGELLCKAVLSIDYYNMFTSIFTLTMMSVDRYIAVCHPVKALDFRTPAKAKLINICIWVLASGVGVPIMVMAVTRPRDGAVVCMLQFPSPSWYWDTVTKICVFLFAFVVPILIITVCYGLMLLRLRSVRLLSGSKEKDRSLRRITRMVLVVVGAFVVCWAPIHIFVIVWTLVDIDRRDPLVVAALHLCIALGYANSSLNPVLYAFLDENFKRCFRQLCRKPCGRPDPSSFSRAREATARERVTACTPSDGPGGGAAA

## Cc1cc(NC(=N)N)nc2ccccc12
[1]
  Ki: 13 nM
[2]
  Ki: 185 nM
[3]
  Ki: 91 nM
[4]
  Ki: 7 nM

## N=C(N)NCCC[C@H](NC(=O)[C@H](CCC(N)=O)NC(=O)[C@@H]1CCCN1C(=O)[C@H](CCC(N)=O)NC(=O)[C@H](Cc1ccccc1)NC(=O)[C@H](Cc1ccccc1)NC(=O)[C@@H]1CCCN1C(=O)[C@@H](N)Cc1ccc(O)cc1)C(=O)N[C@@H](Cc1ccccc1)C(N)=O (H-YPFFQPQRF-NH2)
[5]
  EC50: 25.3 nM
[6]
  EC50: 4.44 nM
[7]
  EC50: 599 nM

## Cc1cc(O)cc(C)c1C[C@H](N)C(=O)N[C@H](CCCNC(=N)N)C(=O)N[C@H]1Cc2ccccc2CN(CCC(=O)N[C@@H](CCCNC(=N)N)C(=O)N[C@@H](Cc2ccccc2)C(N)=O)C1=O (H-[Dmt][dR][X1]RF-NH2)
[8]
  Emax: 88%
[9]
  EC50: > 10000 nM
[10]
  EC50: 108 nM
[11]
  Emax: 95%
[12]
  Emax: 89%
[13]
  Emax: 111%
[14]
  Emax: 92%

## O=C(N[C@@H](CCCN1CCCCC1)C(=O)NCCc1ccccc1)c1ccccc1-c1ccccc1
[15]
  Ki: 560 nM
[16]
  Ki: 172 nM

## N=C(N)N/N=C/c1ccc(Br)c(Br)c1
[17]
  Ki: 100 nM
[18]
  Efficacy: 11%
[19]
  EC50: 794 nM
[20]
  Efficacy: 23%
[21]
  Ki: 126 nM

## NC(=O)[C@H](Cc1ccccc1)NC(=O)[C@H](CCCN=C(N)N)NC(=O)C12CC3CC(CC(C3)C1)C2
[22]
  EC50: 4700 nM
[23]
  Ki: 75 nM
[24]
  Ki: 58 nM

## C[C@@H](NC(=O)[C@@H](N)Cc1ccc(O)cc1)C(=O)NCC(=O)N[C@@H](Cc1ccccc1)C(=O)N[C@@H](CCC(N)=O)C(=O)N1CCC[C@H]1C(=O)N[C@@H](CCC(N)=O)C(=O)N[C@@H](CCCNC(=N)N)C(=O)N[C@@H](Cc1ccccc1)C(N)=O (H-Y[dA]GFQPQRF-NH2)
[25]
  EC50: 178 nM
[26]
  Emax: 117%

## NC1=NC=C(c2ccc(Cl)c(Cl)c2)CN1
[27]
  Ki: > 5000 nM
[28]
  Ki: > 5000 nM
[29]
  Ki: 37 nM
[30]
  Ki: 1 nM
[31]
  Ki: > 5000 nM

## N=C(N)N/N=C/c1ccc(-c2ccccc2C(F)(F)F)o1
[18]; filed as agonist
  Efficacy: 57.8%
[32]
  EC50: 3160 nM
[33]
  Efficacy: 72.1%
[20]; filed as agonist
  Efficacy: 93%
[34]
  Efficacy: 114%
[35]
  EC50: 1260 nM
[36]
  EC50: 251 nM
